{
  "source": "ChEMBL document CHEMBL2163212",
  "about": "“Antivirals targeting influenza A virus” (J Med Chem, 2012)",
  "key": {"Influenza A virus": {"tested_on": "Influenza A virus", "experiment": "Antiviral activity against Influenza A virus containing Matrix protein 2 V27A mutant by plaque reduction assay", "assay_type": "functional, organism-based"}, "Matrix protein 2": {"molecular_target": "Matrix protein 2 (Influenza A virus, UniProt P06821, V27A)", "experiment": "Inhibition of Influenza A virus Matrix protein 2 V27A mutant"}},
  "data": [
    {"smiles": "CN1CCC2(C1)C1CC3CC(C1)CC2C3", "note": "(configuration not stated) [SPIROAMANTADINE]", "values": [
      {"measurement": "IC50", "setting": "Influenza A virus", "value": 1000, "unit": "nM"},
      {"measurement": "IC50", "setting": "Matrix protein 2", "value": 300, "unit": "nM"}
    ]}
  ]
}
